# Measurements taken from US6051589A, “Diphenyloxazoline derivatives” (Bayer Aktiengesellschaft, priority 1994, dated 2000).
# Like-named read-outs stand apart in the source and are kept apart here.
# What was measured:
# [1] = partition coefficient log p (octanol/water); assay type: physicochemical
# [2] = tested on: red spider mite Tetranychus urticae; assay: Tetranychus Test (OP resistant/dipping treatment); assay type: in vivo; settings: after 7 days, concentration of active compound 0.01%, all developmental stages, bean plants, OP resistant
# Method: Tetranychus Test (OP resistant/dipping treatment)
# Solvent: 7 parts by weight of dimethylformamide
# (§1) Emulsifier: 1 part by weight of alkylaryl polyglycol ether
# To produce a suitable preparation of active compound, 1 part by weight of active compound is mixed with the stated amount of solvent and the stated amount of emulsifier, and the concentrate is diluted with emulsifier-containing water to the desired concentrations.
# Bean plants (Phaseolus vulgaris) which are heavily infested with all developmental stages of the red spider mite Tetranychus urticae are dipped in a preparation of the active compound of the desired concentration.
# After the desired time, the action in percent is determined. 100% means that all the spider mites have been killed, 0% means that none of the spider mites have been killed.
# [3] = tested on: mustard beetle larvae (Phaedon cochleariae); assay: Phaedon Larvae Test; assay type: in vivo; settings: concentration of active compound 0.1%, cabbage leaves, read-out: degree of mortality
# Method: Solvent: 3 parts by weight of dimethylformamide
# as §1
# To produce a suitable preparation of active compound, 1 part by weight of active compound is mixed with the stated amount of solvent and the stated amount of emulsifier, and the concentrate is diluted with water to the desired concentration.
# After the desired time, the destruction in % is determined. 100% means that all the beetle larvae have been killed; 0% means that none of the beetle larvae have been killed.
Structure (SMILES),"logD ([1]; pH 7.5, read-out: log p)",degree of mortality [2] [%],mortality at 0.1 % [3] [%],"logD ([1]; pH: 7.4, read-out: partition coefficient log p (octanol/water))"
Cc1ccc(C2COC(c3c(F)c(F)cc(F)c3F)=N2)cc1 (stereo not shown) [Example 14],3.69,–,–,–
CC(C)(C)c1ccc(C2COC(c3cc(F)c(F)cc3F)=N2)cc1 (stereo not shown) [Example 5],4.78,98,–,–
CC(C)(C)c1ccc(C2COC(c3c(F)cc(F)cc3F)=N2)cc1 (stereo not shown) [Example 7],4.43,–,–,–
CC(C)(C)c1ccc(C2COC(c3cc(F)c(F)c(F)c3F)=N2)cc1 (stereo not shown) [Example 4],4.78,–,–,–
CC(C)(C)c1ccc(C2COC(c3c(F)c(F)c(F)c(F)c3F)=N2)cc1 (stereo not shown) [Example 3],5.12,–,–,–
CC(C)Cc1ccc(C2COC(c3c(F)c(F)cc(F)c3F)=N2)cc1 (stereo not shown) [Example 12],5.35,–,–,–
CC(C)(C)c1ccc(C2COC(c3cc(F)c(Cl)cc3Cl)=N2)cc1 (stereo not shown) [Example 6],5.65,–,–,–
"CC(C)(C)c1ccc(C2COC(c3c(F)c(F)cc(F)c3F)=N2)cc1 (stereo not shown) [Example 1, 4-(4-tert-butylphenyl)-2-(2,3,5,6-tetrafluorophenyl)-1,3-oxazoline]",–,98,65,4.7
COc1c(F)cc(F)c(F)c1C1=NC(c2ccc(C(C)(C)C)cc2)CO1 (stereo not shown) [Example 2],4.59,98,65,–
CC(C)(C)c1ccc(C2COC(c3c(F)ccc(F)c3F)=N2)cc1 (stereo not shown) [Example 8],4.45,–,–,–
CC(C)(C)c1ccc(C2COC(c3c(F)cc(C(F)(F)F)cc3F)=N2)cc1 (stereo not shown) [Example 9],5.13,–,–,–
